Drawing on patent US20250270208A1, “BICYCLIC HETEROCYCLES AS MRGPRX2 ANTAGONISTS” (Incyte Corporation, priority 2023, published 2025), this text covers IC50 for ten molecules.

Molecules are shown by their SMILES.

What all share (format): cell-based
The target of test [1] is T1, MRGPRX2 (Homo sapiens, UniProt Q96LB1).
T1 sequence (Q96LB1 1-330): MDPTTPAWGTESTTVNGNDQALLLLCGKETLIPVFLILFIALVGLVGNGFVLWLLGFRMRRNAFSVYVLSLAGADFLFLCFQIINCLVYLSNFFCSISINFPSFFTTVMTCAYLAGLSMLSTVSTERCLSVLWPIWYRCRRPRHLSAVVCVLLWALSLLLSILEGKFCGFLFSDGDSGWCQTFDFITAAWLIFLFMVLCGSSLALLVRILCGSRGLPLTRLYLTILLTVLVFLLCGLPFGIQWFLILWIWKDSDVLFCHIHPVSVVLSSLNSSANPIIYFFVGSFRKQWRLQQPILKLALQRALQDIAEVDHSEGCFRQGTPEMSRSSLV
In words: MRGPRX2 FLIPR calcium mobilization assay. Details: host or cells: CHO-K1. As to conditions: CHO-K1 cells stably expressing human MRGPRX2; Ca2+ release; agonist Cortistatin-14 at EC80. The procedure:
Chinese hamster ovary (CHO-K1) cells stably expressing human MRGPRX2 were purchased from Genescript (Piscataway, NJ). The cells were maintained in culture medium (Ham's F-12K) containing 10% (v/v) FBS, 200 μg/mL Zeocin, 100 units/mL penicillin G and 100 μg/mL streptomycin (Life Technologies, Carlsbad, CA). For the assay, the cells were harvested and resuspended with culture medium without Zeocin before plating at 8000 cells per well in 20 μL in 384-well black clear bottom cell culture plates (VWR, Radnor, PA). After 24 hour culture at 37° C. and 5% CO2, the cells were loaded with 20 μL/well of calcium dye (FLIPR Calcium 6 Assay Kit, Molecular Devices, San Jose, CA) diluted in loading buffer (1× Hank's Balanced Salt Solution (HBSS), 5 mM probenecid, 20 mM 4-(2-hydroxyethyl)-1-piperazineethanesulfonic acid (HEPES), pH 7.4, VWR, Radnor, PA) followed with 45 min incubation at 37° C. and 40 min. at r.t. in the dark. Cells were then treated with the addition of 10 uL/well test compounds with a range of increasing concentrations diluted in the assay buffer (1×HBSS, 20 mM HEPES, pH 7.4, VWR, Radnor, PA) with FLIPR Penta (Molecular Devices. San Jose, CA) and incubated for 30 min. at r.t. Ca^2+ release was measured with FLIPR Penta with 10 s basal fluorescence measurement, then 12.5 μL of 5× agonist Cortistatin-14 (Tocris, Minneapolis, MN) at final concentration corresponding to the EC80 were added followed with continued fluorescence signal monitoring for an additional 110 s. The base line adjusted (median of first 10 s base line) max value of the Relative Fluorescence Unit (RFU) was plotted against compound concentrations. Wells with no compound were served as the positive controls, and wells with high concentration of reference antagonist were used as negative controls. IC50 curves were globally fitted with 3- or 4-parameter Hill equation in a Genedata Screener (Genedata Basel, Switzerland).

The target of test [2] is T1, MRGPRX2. In words: MRGPRX2 IP1 HTRF assay. Details: host or cells: CHO-K1. As to conditions: CHO-K1 cells stably expressing human MRGPRX2; IP1 accumulation; agonist Cortistatin 14 1 μM. How it is done: This assay measures compound inhibition of myo-Inositol 1 phosphate (IP1) accumulation in CHO-K1 cells. Chinese hamster ovary (CHO-K1) cells stably expressing human MRGPRX2 were purchased from GenScript (Piscataway, NJ).
For the HTRF IP1 determination, an IP-One GqKit (Perkin Elmer Cisbio, Waltham, MA), which includes all reagents and buffers in this protocol, was used. The cells were maintained in culture medium (Ham's F-12K) containing 10% (v/v) FBS, and 200 μg/mL Zeocin. For the assay, the cells were harvested and resuspended in culture medium with 2% FBS and without Zeocin, then were passed through a 40 μm filter. Cells were added at 20000 cells in a 5 μL/well to a 384-well white small volume cell culture plate (Greiner VWR, Radnor, PA) which contained 50 nL/well of test compound serially diluted at a selected concentration range in DMSO. 5 μL/well of prepared 2× Stimulation Buffer 2 was then added to plates and was incubated at 37° C. with 5% CO2 for 1 h. 5 μL/well of agonist Cortistatin 14 (Bio-TechneR&D Systems, Minneapolis, MN) in 1× Stimulation Buffer 2, for a 1 μM final concentration, was then added to plates and incubated at 37° C. with 5% CO2 for 1 h. 6 μL/well of 1:20 diluted Detection Reagent Mix (d2 and Cryptate) was added to the plates and incubated for 1 h in the dark. Plates were read on the PHERAstar microplate reader (BMG Labtech Cary, NC) to determine the HTRF ratio of the acceptor and donor emission signals. The IP1 concentrations were calculated from a standard curve following the IP-One GQ kit instructions. Wells with DMSO only and wells with high concentration of reference antagonist were used as controls for normalization. Compound IC50 curves were globally fitted with 3- or 4-parameter Hill equation in a Genedata Screener (Genedata Basel, Switzerland).

Test [3] deals with T1, MRGPRX2. Nature of the test: MRGPRX2 β-Arrestin assay. Details: host or cells: PathHunter CHO-K1. As to conditions: PathHunter CHO-K1 MRGPRX2 β-Arrestin cell line; agonist Cortistatin 14 0.25 μM. An excerpt:
This assay measures compound inhibition of β-Arrestin recruitment, which is part of the G protein-independent pathway that results from the ligand-activated GPCR phosphorylation by specific GPCR kinases. The PathHunter CHO-K1 MRPGRX2 β-Arrestin Cell line stably expressing ProLink tagged MRGPRX2 and Enzyme Acceptor Tagged β-Arrestin was purchased from Eurofins DiscoverX, (Fremont, CA).
The cells were maintained in culture medium from the Europhins DiscoverX Cell Culture Kit-107 which includes FBS, hygromycin B and G418. For the assay, the cells were harvested and were resuspended with Cell Plating Reagent 2 (Eurofins DiscoverX). Cells were added 10000 cells in 25 μL/well to a 384-well black cell culture plate (Greiner VWR, Radnor, PA) which contained 125 nL/well of compound at a selected serially diluted concentration range or DMSO. The plate was incubated at 37° C. with 5% CO2 for 1 h. 2 μL/well of agonist Cortistatin 14 was diluted in Protein Dilution Buffer, (Eurofins DiscoverX) for a final concentration of 0.25 μM, was added and the plate was incubated at 37° C. with 5% CO2 for 90 min. 14 μL/well of Detection Reagent Mix (PathHunter Detection Kit, Eurofins DiscoverX) was added to the plates and further incubated for 1 h in the dark. Plates were read on the PHERAstar microplate reader (BMG Labtech Cary, NC) measuring luminescence 0.1 to 1 s per well. Data was normalized using DMSO only wells and wells with high concentration of reference antagonist as controls. Compound IC50 curves were globally fitted with 3- or 4-parameter Hill equation in a Genedata Screener (Genedata Basel, Switzerland).

`Cn1cnc2ccnc(N[C@@H]3CCC[C@H](Nc4cc(C(F)(F)F)nc5ccc(Cl)cc45)C3)c21` [Example 4, (1S,3R)-N^1-(6-Chloro-2-(trifluoromethyl)quinolin-4-yl)-N^3-(3-methyl-3H-imidazo[4,5-c]pyridin-4-yl)cyclohexane-1,3-diamine]: the IC50 on MRGPRX2 [1], at MRGPRX2 [2] and at MRGPRX2 [3] was 0.1 to 100 nM throughout.

For the molecule `FC(F)(F)c1cc(N[C@H]2CCC[C@@H](Nc3nccc4ncccc34)C2)c2cc(Cl)ccc2n1` [Example 5, (1S,3R)-N^1-(6-Chloro-2-(trifluoromethyl)quinolin-4-yl)-N^3-(1,6-naphthyridin-5-yl)cyclohexane-1,3-diamine], the IC50 at MRGPRX2 [1], on MRGPRX2 [2] and at MRGPRX2 [3] was 0.1 to 100 nM each time.

Take `FC(F)(F)c1cc(N[C@H]2CCC[C@@H](Nc3nccn4cncc34)C2)c2cc(Cl)ccc2n1` [Example 9, (1S,3R)-N^1-(6-Chloro-2-(trifluoromethyl)quinolin-4-yl)-N^3-(imidazo[1,5-a]pyrazin-8-yl)cyclohexane-1,3-diamine]: the IC50 on MRGPRX2 [1], at MRGPRX2 [2] and on MRGPRX2 [3] was 0.1 to 100 nM throughout.

On to `Cc1ncc2c(N[C@@H]3CCC[C@H](Nc4cc(C(F)(F)F)nc5ccc(Cl)cc45)C3)nccn12` [Example 10, (1S,3R)-N^1-(6-Chloro-2-(trifluoromethyl)quinolin-4-yl)-N^3-(3-methylimidazo[1,5-a]pyrazin-8-yl)cyclohexane-1,3-diamine], for which the concentration for half-maximal inhibition (IC50) on MRGPRX2 [1], at MRGPRX2 [2] and on MRGPRX2 [3] was 0.1 to 100 nM in each case.

In the case of `Cc1cc2c(N[C@@H]3CCC[C@H](Nc4cc(C(F)(F)F)nc5ccc(Cl)cc45)C3)nccn2n1` [Example 11, (1S,3R)-N^1-(6-Chloro-2-(trifluoromethyl)quinolin-4-yl)-N^3-(2-methylpyrazolo[1,5-a]pyrazin-4-yl)cyclohexane-1,3-diamine], the IC50 at MRGPRX2 [1], at MRGPRX2 [2] and at MRGPRX2 [3] was 0.1 to 100 nM each time.

As to `FC(F)(F)c1cc(N[C@H]2CC[C@@H](Nc3nccc4ncccc34)CC2)c2cc(Cl)ccc2n1` [Example 13, (1s,4s)-N^1-(6-Chloro-2-(trifluoromethyl)quinolin-4-yl)-N^4-(1,6-naphthyridin-5-yl)cyclohexane-1,4-diamine], the half-inhibitory concentration (IC50) at MRGPRX2 [1], on MRGPRX2 [2] and at MRGPRX2 [3] was 0.1 to 100 nM throughout.

For `Cn1cnc2ccnc(N[C@@H]3CCC[C@H](Nc4cc(C(F)(F)F)nc5ccc(F)cc45)C3)c21` [Example 14, (1S,3R)-N^1-(6-Fluoro-2-(trifluoromethyl)quinolin-4-yl)-N^3-(3-methyl-3H-imidazo[4,5-c]pyridin-4-yl)cyclohexane-1,3-diamine], the IC50 at MRGPRX2 [1], at MRGPRX2 [2] and at MRGPRX2 [3] was 0.1 to 100 nM throughout.

In the case of `Cn1cnc2ccnc(N[C@@H]3CCC[C@H](Nc4cc(C(F)(F)F)nc5ccccc45)C3)c21` [Example 15, (1R,3S)-N^1-(3-Methyl-3H-imidazo[4,5-c]pyridin-4-yl)-N^3-(2-(trifluoromethyl)quinolin-4-yl)cyclohexane-1,3-diamine], the IC50 lay within 0.1 to 100 nM on MRGPRX2 [1], 100 to 1000 nM on MRGPRX2 [2] and 0.1 to 100 nM at MRGPRX2 [3].

Consider `Cn1cnc2ccnc(N[C@@H]3CCC[C@H](Nc4cc(C(F)(F)F)nc5ccc(Br)cc45)C3)c21` [Example 16, (1S,3R)-N^1-(6-Bromo-2-(trifluoromethyl)quinolin-4-yl)-N^3-(3-methyl-3H-imidazo[4,5-c]pyridin-4-yl)cyclohexane-1,3-diamine], for which the IC50 at MRGPRX2 [1], at MRGPRX2 [2] and on MRGPRX2 [3] was 0.1 to 100 nM throughout.

Regarding `Cc1ccc2nc(C(F)(F)F)cc(N[C@H]3CCC[C@@H](Nc4nccc5ncn(C)c45)C3)c2c1` [Example 17, (1S,3R)-N^1-(6-Methyl-2-(trifluoromethyl)quinolin-4-yl)-N^3-(3-methyl-3H-imidazo[4,5-c]pyridin-4-yl)cyclohexane-1,3-diamine], the 50% inhibitory concentration (IC50) at MRGPRX2 [1], on MRGPRX2 [2] and at MRGPRX2 [3] was 0.1 to 100 nM throughout.
